Measured values reported in patent publication US20110212053A1, “PHOSPHATIDYLINOSITOL 3 KINASE INHIBITORS” (priority 2008, published 2011).

Legend:
PI3Kβ = target: T1, PI3Kβ (Homo sapiens, UniProt P42338); experiment: KinaseGLO luminescent PI3-kinase assay, PI3Kβ; format: biochemical
T1 construct: purchased Invitrogen or Millipore
Experimental: Compound Preparation: KinaseGLO assay: 30× stocks of inhibitors were prepared in DMSO. A 10 mM master stock was prepared and all other stocks were generated by serial dilution of this master stock in DMSO. The final concentration of DMSO in the kinase reaction was 3.3% (v/v).
PI3-Kinase Assay: The KinaseGLO® Luminescent Kinase Assay (Promega) is a luciferin-luciferase based luminescent assay that utilizes a proprietary thermostable luciferase to quantify the ATP remaining in a solution after a kinase reaction. The luminescent signal generated using KinaseGLO® directly correlates with ATP concentration, and therefore inversely correlates with kinase activity.
PI3K enzyme sample was thawed and diluted to 100 ng/μL in enzyme dilution buffer (50 mM HEPES, pH7.5, 3.0 mM MgCl2, 1.0 mM EGTA) and stored on ice. PI3Kα enzyme was diluted to a final concentration of 1 ng/μL in reaction buffer (for PI3Kα; 50 mM HEPES, pH7.5, 100 mM NaCl, 2.0 mM DTT, 3.0 mM MgCl2, 1.0 mM EGTA, 10 μM ATP) and gently mixed. 25 μL of this kinase reaction was then aliquoted into test wells in a Microfluor2 white 96-well plate (Thermo Scientific). As a preincubation step, 1 μl of 30× compound dilutions was added to the appropriate test wells to generate a ten point dose-response ranging from 0.0 μM-10 μM inhibitor. […] Luminescent signal was detected using a SpectraMax M5 (Molecular Devices). Maximal luminescence (no PI3K activity/maximal PI3K inhibition) was determined from reaction buffer plus SC-PI substrate only controls. The minimal signal (maximal PI3K activity) was determined by the 0.0 μM compound (DMSO only) control. IC50 values were calculated via non-linear regression using GraphPad Prism data analysis software.
Compounds were assayed against the Class I PI3Kα, PI3Kβ, PI3Kγ, PI3Kδ, PI3Kα(H1047R) and PI3Kα(E545K) in the KinaseGLO assay as described in Example 2, and against the Class IV PI3K mTOR in the radiometric assay. IC50 values (μM) were determined using 8-10 point half-log dose dilutions and calculated via nonlinear regression analysis using Graphpad Prism data analysis software.

[1] = tested on: p-AKT(S473) in U-87 MG cells; experiment: In-cell western blot (cytoblot) of AKT phosphorylation, U-87 MG; format: cell-based; conditions: Homo sapiens, read-out: IC50 against the p-AKT(S473) phosphorylation site
Experimental: Compound Preparation: Cell-based assays: 1000× stocks of inhibitors were prepared in DMSO. A 10 mM master stock was prepared and all other stocks were generated by serial dilution of the master stock in DMSO. The final concentration of DMSO in cell-based assays was 0.1% (v/v).
In-cell western blot (cytoblot) mechanistic assay; Measurement of AKT phosphorylation: The in-cell western blot assay is a quantitative 96-well immunocytochemistry assay using fixed cells. Phosphorylated AKT is detected and quantified via either enhanced chemiluminescence (ECL) or near infra-red (LI-COR) methods. Log-phase cells (10,000 A549, RKO or 30,000 U-87 MG) were plated in collagen coated, 96 well plates (Nunc) in 200 μL of growth medium (10% FBS/DMEM) and allowed to attach overnight at 37° C. in 5% CO2 incubator. Black 96 well plates were used for ECL assays. White, clear bottomed 96 well plates were used for LI-COR assays. The following day the growth medium was removed. For experiments using U-87 MG cells and RKO cells, the growth medium was replaced with 200 μL of fresh growth medium containing inhibitors dissolved in DMSO. PI3K inhibitors were dosed using half-log dilutions to generate an eight-point dose-response curve from 0.0 μM-10 μM for EC50 determinations, and the final concentration of DMSO in the test wells was 0.1% (v/v). The inhibitor treated cells were then incubated for 1 hour at 37° C. […]
After the inhibitor incubation phase (with or without IGF-1 stimulation), the medium was aspirated, the cells washed once with Tris-Buffered Saline (TBS) and then fixed in the wells by addition of 200 μL of cold 3.7% (v/v) formaldehyde diluted in TBS to test wells and incubated for 15 minutes at 4° C. […] The wells were then was washed four times with ice-cold TBS-T. Phospho-AKT luminescent signal was detected after a 1 minute incubation of test wells with 100 μL of ECL reagent using a SpectraMax M5 luminometer. (ii) Near-infrared fluorescence detection (LI-COR): After removal of the methanol, wells were blocked with 200 μL of LI-COR blocking buffer for 1 hour at room temperature. […]

T1 sequence (P42338 whole entry): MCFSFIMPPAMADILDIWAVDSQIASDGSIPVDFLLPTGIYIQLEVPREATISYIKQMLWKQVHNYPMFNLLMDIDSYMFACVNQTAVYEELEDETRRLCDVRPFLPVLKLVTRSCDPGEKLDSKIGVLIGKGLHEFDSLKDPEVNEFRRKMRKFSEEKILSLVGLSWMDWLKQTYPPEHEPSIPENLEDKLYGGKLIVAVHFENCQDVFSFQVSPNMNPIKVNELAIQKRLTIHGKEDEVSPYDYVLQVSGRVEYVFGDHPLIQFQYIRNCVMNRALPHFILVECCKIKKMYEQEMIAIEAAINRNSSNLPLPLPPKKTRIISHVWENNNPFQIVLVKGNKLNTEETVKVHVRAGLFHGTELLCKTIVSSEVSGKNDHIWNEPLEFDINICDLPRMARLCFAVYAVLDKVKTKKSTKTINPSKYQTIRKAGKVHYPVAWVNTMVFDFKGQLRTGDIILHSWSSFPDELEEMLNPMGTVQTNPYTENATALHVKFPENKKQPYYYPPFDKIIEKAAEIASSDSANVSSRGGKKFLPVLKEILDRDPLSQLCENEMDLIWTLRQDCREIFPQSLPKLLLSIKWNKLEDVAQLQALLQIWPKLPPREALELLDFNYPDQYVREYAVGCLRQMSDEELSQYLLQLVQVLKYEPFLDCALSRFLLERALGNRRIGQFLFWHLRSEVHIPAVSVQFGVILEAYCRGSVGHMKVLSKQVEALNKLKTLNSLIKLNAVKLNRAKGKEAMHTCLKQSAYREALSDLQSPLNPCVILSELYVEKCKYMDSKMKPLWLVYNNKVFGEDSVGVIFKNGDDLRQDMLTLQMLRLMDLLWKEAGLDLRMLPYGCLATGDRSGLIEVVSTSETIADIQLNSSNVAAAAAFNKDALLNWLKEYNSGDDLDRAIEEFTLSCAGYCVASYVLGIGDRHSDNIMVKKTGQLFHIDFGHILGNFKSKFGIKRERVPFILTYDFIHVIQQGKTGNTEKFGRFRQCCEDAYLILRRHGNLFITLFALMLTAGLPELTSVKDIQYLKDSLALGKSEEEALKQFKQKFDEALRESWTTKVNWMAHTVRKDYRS
T1 sequence (P27986 whole entry partner): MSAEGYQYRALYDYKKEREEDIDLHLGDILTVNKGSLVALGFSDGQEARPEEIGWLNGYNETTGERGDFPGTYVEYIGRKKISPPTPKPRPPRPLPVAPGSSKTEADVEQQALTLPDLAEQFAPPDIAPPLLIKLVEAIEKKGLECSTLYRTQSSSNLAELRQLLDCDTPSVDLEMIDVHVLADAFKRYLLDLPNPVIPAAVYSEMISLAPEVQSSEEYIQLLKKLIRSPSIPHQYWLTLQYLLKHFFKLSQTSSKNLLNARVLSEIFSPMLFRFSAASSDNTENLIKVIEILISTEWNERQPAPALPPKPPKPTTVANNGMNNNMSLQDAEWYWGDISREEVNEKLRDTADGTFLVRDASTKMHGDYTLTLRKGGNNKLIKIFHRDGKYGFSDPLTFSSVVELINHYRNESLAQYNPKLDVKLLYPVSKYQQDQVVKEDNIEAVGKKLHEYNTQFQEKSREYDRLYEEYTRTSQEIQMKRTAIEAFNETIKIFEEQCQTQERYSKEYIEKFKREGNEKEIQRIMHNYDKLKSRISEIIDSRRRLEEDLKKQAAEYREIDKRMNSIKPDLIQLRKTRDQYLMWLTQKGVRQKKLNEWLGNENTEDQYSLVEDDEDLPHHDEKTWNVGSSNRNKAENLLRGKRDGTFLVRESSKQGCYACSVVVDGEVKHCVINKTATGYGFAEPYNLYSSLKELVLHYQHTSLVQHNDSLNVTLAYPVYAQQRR

SMILES	IC50 (PI3Kβ) [µM]	IC50 [1] [µM]
CC(C)(C#N)c1ccc(-c2n[nH]c3cnc4ccc(-c5cnc6ccccc6c5)cc4c23)cc1 [Compound 1078, 2-methyl-2-(4-(8-(quinolin-3-yl)-3H-pyrazolo[3,4-c]quinolin-1-yl)phenyl)propanenitrile]	> 0.05	0.088
CC(C)(C#N)c1ccc(-c2n[nH]c3cnc4ccc(-c5cccnc5)cc4c23)cc1 [Compound 1107, 2-methyl-2-(4-(8-(pyridin-3-yl)-3H-pyrazolo[3,4-c]quinolin-1-yl)phenyl)propanenitrile]	0.035 to 0.05	0.054
CC(C)(C#N)c1ccc(-c2n[nH]c3cnc4ccc(-c5ccc6ncccc6c5)cc4c23)cc1 [Compound 1110, 2-methyl-2-(4-(8-(quinolin-6-yl)-3H-pyrazolo[3,4-c]quinolin-1-yl)phenyl)propanenitrile]	> 0.05	0.081
